Laboratory results taken from patent US20220071932A1, “Compositions and Methods Against Stress-Induced Affective Disorders and Their Associated Symptoms” (The Trustees of Columbia University in the City of New York, priority 2019, published 2022).

Assays:
[1] = tested on: 129S6/SvEv mice; test: Forced swim test (FST); immobility time; type: in vivo; details: for p, Fisher's PLSD Saline vs. drug, FST Day 2 Immobility Time (sec): drug 1 week before stress; for Behavior: Depressive-like: dose 30 mg/kg
Description: The FST was administered as previously described (47). Briefly, mice were placed into clear plastic buckets 20 cm in diameter and 23 cm deep filled ⅔ of the way with 22° C. water. Mice were videotaped from the side for 6 min and were exposed to the swim test on 2 consecutive days Immobility time was scored by an experimenter blind to the experimental groups.

[2] = tested on: c-fos; test: c-fos immunohistochemistry in hippocampus after CFC re-exposure; type: in vivo, mice; details: one week prior to CFC, sacrificed one hour after re-exposure; (R,S)-ketamine 30 mg/kg, FENM 20 mg/kg; vs saline
Description: Immunohistochemistry was performed as previously described (46). Mice were deeply anesthetized, and brains were fixed and extracted using transcardial perfusion. For c-fos immunohistochemistry, floating sections were used. Sections were first rinsed three times in 1×PBS and then blocked in 1×PBS with 0.5% Triton X-100 and 10% NDS for 2 hours at room temperature (RT). Incubation with primary antibodies was performed at 4° C. overnight (rabbit anti-c-fos, 1:5000, SySy, Göettingen, Germany, 226 003) in 1×PBS with 0.5% Triton X-100. Sections were then washed three times in 1×PBS and incubated with secondary antibody (Alexa 647 anti-rabbit, 1:500, Thermo Fisher Scientific, Waltham, Mass. A32733) for 2 hours at RT. Sections were then washed three times in 1×PBS, mounted on slides, and coverslipped with ProLong Gold (Invitrogen, Carlsbad, Calif.).
Fluorescent confocal micrographs were captured with a Leica TCS SPE-II confocal microscope with LAS X software. Bilateral hippocampal sections were imaged throughout the rostro-caudal axis of the HPC using a 20× objective. Identification of hippocampal regions involved acquiring 6 dorsal and ventral sections per mouse brain slice at 20×. […]
An investigator blind to treatment groups used FIJI software to count c-fos^+ immunoreactive cells in the DG, CA3, and CA1 throughout the entire rostrocaudal axis of the HPC. Cells were counted bilaterally. […]

[3] = tested on: NMDARs; details: ex vivo autoradiography and immunohistochemical staining; cited from earlier work
[4] = tested on: depressive symptoms in patients; details: subanesthetic dose; patients; cited from earlier work
[5] = 30 mg/kg, drug 5 minutes after stress, FIG. 2F
[6] = Saline vs. (R,S)-ketamine (30 mg/kg), FIG. 8H

CNC1(c2ccccc2Cl)CCCCC1=O (racemic) [(R,S)-ketamine, reference compound]
p, Fisher's PLSD Saline vs. drug, FST Day 2 Immobility Time (sec) ([1]; 30 mg/kg, after ANOVA, FIG. 1G): 0.0007
p, Fisher's PLSD Saline vs. drug, FST Day 2 Immobility Time (sec) ([1]; 30 mg/kg, after RMANOVA, FIG. 1F): 0.0003
p, Fisher's PLSD Saline vs. drug, FST Day 2 Immobility Time Min 1 (s) [1, 5]: 0.7994
p, Fisher's PLSD Saline vs. drug, FST Day 2 Immobility Time Min 2 (s) [1, 5]: 0.0125
p, Fisher's PLSD Saline vs. drug, FST Day 2 Immobility Time Min 3 (s) [1, 5]: 0.8598
p, Fisher's PLSD Saline vs. drug, FST Day 2 Immobility Time Min 4 (s) [1, 5]: 0.2874
p, Fisher's PLSD Saline vs. drug, FST Day 2 Immobility Time Min 5 (s) [1, 5]: 0.6526
p, Fisher's PLSD Saline vs. drug, FST Day 2 Immobility Time Min 6 (s) [1, 5]: 0.1586
p, Fisher's PLSD Saline vs. drug, FST Day 2 Immobility Time (s) ([1]; 30 mg/kg, drug 5 minutes after stress, after ANOVA, FIG. 2G): 0.0466
immobility time, day 2 of the FST ([1]; 5 min prior to CFC, (R,S)-ketamine 30 mg/kg, FENM 20 mg/kg, vs saline): significantly decreased immobility time
Behavior: Depressive-like ([1]; Antidepressant (5 min after stress)): ↓
p, Immobility Time (s), FST Day 2, Saline vs. drug ([1]; Fisher's PLSD after ANOVA, drug 5 minutes after stress, FENM 20 mg/kg, (R,S)-ketamine 30 mg/kg, FIG. 3K): 0.6082
p, Immobility Time (s), FST Day 2, Saline vs. drug ([1]; Fisher's PLSD after RMANOVA, drug 5 minutes after stress, FENM 20 mg/kg, (R,S)-ketamine 30 mg/kg, FIG. 3J): 0.8125
Behavior: Depressive-like ([1]; Prophylactic (5 min before stress)): ↓
Behavior: Depressive-like ([1]; Prophylactic (7 days before stress)): ↓
Forced Swim Test Day 1, Immobility Time Min 1 (sec), p (Fisher's LSD) [1, 6]: 0.0026
Forced Swim Test Day 1, Immobility Time Min 2 (sec), p (Fisher's LSD) [1, 6]: 0.2638
Forced Swim Test Day 1, Immobility Time Min 3 (sec), p (Fisher's LSD) [1, 6]: 0.2171
Forced Swim Test Day 1, Immobility Time Min 4 (sec), p (Fisher's LSD) [1, 6]: 0.6849
Forced Swim Test Day 1, Immobility Time Min 5 (sec), p (Fisher's LSD) [1, 6]: 0.2114
Forced Swim Test Day 1, Immobility Time Min 6 (sec), p (Fisher's LSD) [1, 6]: 0.0499
Forced Swim Test Day 2, Immobility Time (sec), p (Fisher's LSD) ([1]; Saline vs. (R,S)-ketamine (30 mg/kg), after ANOVA, FIG. 8K): 0.0046
Forced Swim Test Day 2, Immobility Time (sec), p (Fisher's LSD) ([1]; Saline vs. (R,S)-ketamine (30 mg/kg), after RMANOVA, FIG. 8J): 0.0036
c-fos expression in the ventral CA3 of the hippocampus [2]: significantly increased c-fos expression
[18F]-FENM colocalization with NMDARs when (R,S)-ketamine was administered [3]: colocalization with NMDARs was lost
duration of relief of depressive symptoms [4]: up to 3 weeks
time to relief of depressive symptoms after administration [4]: 2 h
